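96-well plates; 48 h exposure; 5 concentrations. Endpoints by linear interpolation between flanking doses. Not reached: highest tested concentration assigned. At the TGI there is no net growth.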
Columns and labels:
Assay in all cases: NCI anticancer screen, dose series, 48 h
[1] = system: OVCAR-5 ovarian
[2] = system: MDA-MB-435
[3] = system: T-47D breast
[4] = system: MDA-N
[5] = system: SK-MEL-5 melanoma
[6] = system: SK-MEL-2 melanoma
[7] = system: HCC-2998 colon
[8] = system: HOP-92 NSCLC
[9] = system: OVCAR-3 ovarian
[10] = system: LOX IMVI melanoma
[11] = system: PC-3 prostate
[12] = system: EKVX NSCLC
[13] = system: NCI-H226 lung
[14] = system: HOP-62 NSCLC
[15] = system: 786-0 renal
[16] = system: ACHN renal
[17] = system: HL-60(TB) leukemia
[18] = system: NCI/ADR-RES ovarian
[19] = system: COLO 205 colon
[20] = system: CAKI-1 renal
[21] = system: TK-10 renal
[22] = system: A549 NSCLC
[23] = system: UACC-257 melanoma
[24] = system: SK-MEL-28 melanoma
[25] = system: SW-620 colon
[26] = system: HCT-15 colon
[27] = system: M14 melanoma
[28] = system: KM12 colon
[29] = system: UACC-62 melanoma
[30] = system: OVCAR-8 ovarian
[31] = system: OVCAR-4 ovarian
[32] = system: NCI-H460 lung
[33] = system: SF-295 CNS
[34] = system: DU-145 prostate
[35] = system: RXF 393 renal
[36] = system: A498 renal
[37] = system: CCRF-CEM leukemia
[38] = system: SNB-19 CNS
[39] = system: RPMI-8226 leukemia
[40] = system: MCF7 breast
[41] = system: NCI-H23 lung
[42] = system: SN12C renal
[43] = system: BT-549 breast
[44] = system: U251 CNS
[45] = system: SK-OV-3 ovarian
[46] = system: SNB-75 CNS
[47] = system: MALME-3M melanoma
[48] = system: UO-31 renal
[49] = system: SR leukemia
[50] = system: SF-268 CNS
[51] = system: MOLT-4 leukemia
[52] = system: K-562 leukemia
[53] = system: IGROV1 ovarian
[54] = system: NCI-H522 lung
[55] = system: MDA-MB-231 breast
[56] = system: HS 578T breast
[57] = system: SF-539 CNS
[58] = system: HT29 colon
[59] = system: HCT-116 colon

## CCOC(=O)CCSS(=O)(=O)c1ccccc1
[1]
  TGI: > 100 µM
[2]
  TGI: > 100 µM
[3]
  TGI: > 100 µM
[4]
  TGI: > 100 µM
[5]
  TGI: > 100 µM
[6]
  TGI: > 100 µM
[7]
  TGI: > 100 µM
[8]
  TGI: > 100 µM
[9]
  TGI: > 100 µM
[10]
  TGI: 77.4 µM
[11]
  TGI: > 100 µM
[12]
  TGI: > 100 µM
[13]
  TGI: > 100 µM
[14]
  TGI: > 100 µM
[15]
  TGI: 63.9 µM
[16]
  TGI: > 100 µM
[17]
  TGI: > 100 µM
[18]
  TGI: > 100 µM
[19]
  TGI: > 100 µM
[20]
  TGI: > 100 µM
[21]
  TGI: > 100 µM
[22]
  TGI: > 100 µM
[23]
  TGI: > 100 µM
[24]
  TGI: > 100 µM
[25]
  TGI: > 100 µM
[26]
  TGI: > 100 µM
[27]
  TGI: > 100 µM
[28]
  TGI: > 100 µM
[29]
  TGI: > 100 µM
[30]
  TGI: > 100 µM
[31]
  TGI: > 100 µM
[32]
  TGI: > 100 µM
[33]
  TGI: > 100 µM
[34]
  TGI: > 100 µM
[35]
  TGI: > 100 µM
[36]
  TGI: > 100 µM
[37]
  TGI: > 100 µM
[38]
  TGI: > 100 µM
[39]
  TGI: 99 µM
[40]
  TGI: > 100 µM
[41]
  TGI: > 100 µM
[42]
  TGI: > 100 µM
[43]
  TGI: > 100 µM
[44]
  TGI: > 100 µM
[45]
  TGI: > 100 µM
[46]
  TGI: > 100 µM

## COc1ccc(Cc2c(-c3ccc(C)cc3)n[nH]c(=O)c2C2C(=O)N(c3ccccc3)N=C2c2ccccc2)cc1 (centres undefined)
[47]
  TGI: 65.2 µM
[1]
  TGI: > 95.7 µM
[2]
  TGI: 45 µM
[3]
  TGI: > 100 µM
[4]
  TGI: 58.3 µM
[5]
  TGI: 38.9 µM
[6]
  TGI: 52.5 µM
[7]
  TGI: 79.5 µM
[48]
  TGI: > 100 µM
[8]
  TGI: 75.3 µM
[9]
  TGI: 45.8 µM
[10]
  TGI: 46.6 µM
[11]
  TGI: > 91.8 µM
[49]
  TGI: > 79.3 µM
[12]
  TGI: 83.1 µM
[13]
  TGI: 81.9 µM
[14]
  TGI: > 100 µM
[50]
  TGI: > 100 µM
[15]
  TGI: > 100 µM
[16]
  TGI: > 100 µM
[17]
  TGI: 67.6 µM
[18]
  TGI: 58 µM
[19]
  TGI: 40.3 µM
[20]
  TGI: > 88.6 µM
[21]
  TGI: 87.2 µM
[51]
  TGI: > 67.7 µM
[52]
  TGI: > 76.6 µM
[53]
  TGI: 85.1 µM
[22]
  TGI: 84.3 µM
[54]
  TGI: > 100 µM
[55]
  TGI: > 90.4 µM
[56]
  TGI: 82.9 µM
[23]
  TGI: 81.2 µM
[24]
  TGI: > 90.3 µM
[25]
  TGI: > 100 µM
[26]
  TGI: > 100 µM
[27]
  TGI: 81.8 µM
[28]
  TGI: 57.1 µM
[29]
  TGI: 40.4 µM
[30]
  TGI: > 96.6 µM
[57]
  TGI: 56.1 µM
[31]
  TGI: > 100 µM
[32]
  TGI: > 89.3 µM
[33]
  TGI: 60.8 µM
[34]
  TGI: > 100 µM
[35]
  TGI: 57 µM
[58]
  TGI: > 100 µM
[36]
  TGI: 65.4 µM
[59]
  TGI: 46.4 µM
[37]
  TGI: > 78.8 µM
[38]
  TGI: > 100 µM
[39]
  TGI: 80.3 µM
[40]
  TGI: > 91.3 µM
[41]
  TGI: 72.1 µM
[42]
  TGI: > 95.6 µM
[44]
  TGI: > 100 µM
[45]
  TGI: > 100 µM
[46]
  TGI: 81.3 µM

Source: PubChem BioAssay (NCI)
